# Reference: patent US5219884A, “Immunosuppressant” (Taito Co., Ltd., priority 1990, dated 1993)
# Read-outs that look alike come from different tables or passages of the source.
# Key:
# [1] = test system: human allogenic MLR (peripheral blood lymphocytes); assay: human allogenic MLR-suppressive activity; format: cell-based; conditions: for inhibition at 0.0001 µg/mL / inhibition at 0.001 µg/mL / inhibition at 0.01 µg/mL / inhibition at 0.1 µg/mL / inhibition at 1 µg/mL / inhibition at 10 µg/mL / inhibition at 10 pg/mL: Homo sapiens, read-out: Suppression; for inhibition at 0.0001 µg/mL / inhibition at 0.001 µg/mL / inhibition at 0.01 µg/mL / inhibition at 0.1 µg/mL / inhibition at 1 µg/mL / inhibition at 10 µg/mL / inhibition at 10 pg/mL / IC50: Lymphocyte; for IC50: human allogenic MLR, read-out: 50%-inhibition concentration (IC50)
# Protocol: The human allogenic MLR-suppressive activity was assayed as follows:
# Human peripheral blood lymphocytes obtained by Ficoll-Paque density gradient centrifugation of normal human peripheral blood were suspended in the RPMI1640 medium supplemented with 10% FCS, placed in plastic dishes, and incubated at 37° C. in an atmosphere of 5% carbon dioxide for 2 hours. After termination of incubation, the supernatant after gentle pipetting was harvested and centrifuged (1000 rpm, for 5 minutes) to obtain plastic-nonadherent cells. The plastic-nonadherent cells were allowed to pass through a nylon-wool column to give nylon-nonadherent cells, and the concentration of the cell suspension was adjusted to 4×10^6 cells/ml by using the RPMI1640 culture medium supplemented with 10% FCS, and used as the responder cell suspension.
# The plastic-adherent cells were removed from the plastic dish by vigorous pipetting after addition of phosphate buffered saline supplemented with 5% FCS and 0.02% disodium ethylenediamine-tetraacetic acid (EDTA). The plastic-adherent cells were treated with 40 μg/ml of mitomycin C at 37° C. for 60 minutes, washed three times, and suspended to the concentration of 4×10^6 cells/ml in the RPMI1640 culture medium supplemented with 10% FCS. The resultant suspension was used as the stimulator cell suspension. Fifty μl of the responder cell suspension from the donor A or C was mixed with 50 μl of the stimulator cell suspension from the donor B or D, to which 100 μl of the test substance was added, and cultured at 37° C. in the an atmosphere 5% carbon dioxide for 5 days.
# After termination of the culture, 1.0 μCi/well of ^3 H-thymidine was added, and after 18 hours of culture, the cells were harvested by a cell-harvester. The radioactivity incorporated into the cells was measured by a liquid scintillation counter as the index of blastogenic response of lymphocytes in human allogenic MLR. The suppression of human allogenic MLR was evaluated by calculating the percent suppression by the following formula. [formula]
# [2] = test system: CCRF-CEM; assay: in vitro; format: cell-based, human
# [3] = test system: HL60; assay: in vitro; format: cell-based, human
# [4] = test system: KB; assay: in vitro; format: cell-based, human
# [5] = test system: PC-14; assay: in vitro; format: cell-based, human
# [6] = test system: U937; assay: in vitro; format: cell-based, human
structure (smiles),measurement,setting,value
CCCCCCC(=O)CCCCCC/C=C/CC1OC(=O)C(N)(CO)C1O (stereo not shown) [Example 4],inhibition at 0.0001 µg/mL,"[1]; donor A/donor B, 0.0001 μg/ml",32.3%
same,inhibition at 0.001 µg/mL,"[1]; donor A/donor B, 0.001 μg/ml",47.4%
same,inhibition at 0.01 µg/mL,"[1]; donor A/donor B, 0.01 μg/ml",65.8%
same,inhibition at 0.1 µg/mL,"[1]; donor A/donor B, 0.1 μg/ml",89.2%
same,inhibition at 1 µg/mL,"[1]; donor A/donor B, 1 μg/ml",83.5%
same,inhibition at 10 µg/mL,"[1]; donor A/donor B, 10 μg/ml",86.4%
same,inhibition at 10 pg/mL,"[1]; donor C/donor D, 0.00001 μg/ml",55.8%
same,inhibition at 0.0001 µg/mL,"[1]; donor C/donor D, 0.0001 μg/ml",61.9%
same,inhibition at 0.001 µg/mL,"[1]; donor C/donor D, 0.001 μg/ml",58.5%
same,inhibition at 0.01 µg/mL,"[1]; donor C/donor D, 0.01 μg/ml",80.8%
same,inhibition at 0.1 µg/mL,"[1]; donor C/donor D, 0.1 μg/ml",84.9%
same,inhibition at 1 µg/mL,"[1]; donor C/donor D, 1 μg/ml",79.2%
same,IC50,[1],0.79 ng/mL
same,3H-thymidine uptake,"[1]; donor A/donor B, 0.0001 μg/ml",16963 cpm
same,3H-thymidine uptake,"[1]; donor A/donor B, 0.001 μg/ml",13715 cpm
same,3H-thymidine uptake,"[1]; donor A/donor B, 0.01 μg/ml",9754 cpm
same,3H-thymidine uptake,"[1]; donor A/donor B, 0.1 μg/ml",4734 cpm
same,3H-thymidine uptake,"[1]; donor A/donor B, 1 μg/ml",5954 cpm
same,3H-thymidine uptake,"[1]; donor A/donor B, 10 μg/ml",5332 cpm
same,3H-thymidine uptake,"[1]; donor C/donor D, 0.00001 μg/ml",7746 cpm
same,3H-thymidine uptake,"[1]; donor C/donor D, 0.0001 μg/ml",6700 cpm
same,3H-thymidine uptake,"[1]; donor C/donor D, 0.001 μg/ml",7278 cpm
same,3H-thymidine uptake,"[1]; donor C/donor D, 0.01 μg/ml",3417 cpm
same,3H-thymidine uptake,"[1]; donor C/donor D, 0.1 μg/ml",2708 cpm
same,3H-thymidine uptake,"[1]; donor C/donor D, 1 μg/ml",3703 cpm
same,Absorbancy,[2]; 0.1 μg/ml,0.564
same,Absorbancy,[2]; 1.0 μg/ml,0.556
same,Absorbancy,[2]; 10.0 μg/ml,0.389
same,Absorbancy,[2]; 100.0 μg/ml,0.004
same,Absorbancy,[3]; 0.1 μg/ml,0.265
same,Absorbancy,[3]; 1.0 μg/ml,0.300
same,Absorbancy,[3]; 10.0 μg/ml,0.273
same,Absorbancy,[3]; 100.0 μg/ml,0.008
same,Absorbancy,[4]; 0.1 μg/ml,0.884
same,Absorbancy,[4]; 1.0 μg/ml,1.065
same,Absorbancy,[4]; 10.0 μg/ml,0.726
same,Absorbancy,[4]; 100.0 μg/ml,0.012
same,Absorbancy,[5]; 0.1 μg/ml,0.656
same,Absorbancy,[5]; 1.0 μg/ml,0.679
same,Absorbancy,[5]; 10.0 μg/ml,0.657
same,Absorbancy,[5]; 100.0 μg/ml,0.030
same,Absorbancy,[6]; 0.1 μg/ml,0.313
same,Absorbancy,[6]; 1.0 μg/ml,0.384
same,Absorbancy,[6]; 10.0 μg/ml,0.362
same,Absorbancy,[6]; 100.0 μg/ml,0.004
CCCCCCC(O)CCCCCC/C=C/CC(O)C(O)C(N)(CO)C(=O)O (stereo not shown) [Example 6],inhibition at 0.0001 µg/mL,"[1]; donor A/donor B, 0.0001 μg/ml",45.2%
same,inhibition at 0.001 µg/mL,"[1]; donor A/donor B, 0.001 μg/ml",56.2%
same,inhibition at 0.01 µg/mL,"[1]; donor A/donor B, 0.01 μg/ml",81.7%
same,inhibition at 0.1 µg/mL,"[1]; donor A/donor B, 0.1 μg/ml",81.3%
same,inhibition at 1 µg/mL,"[1]; donor A/donor B, 1 μg/ml",83.9%
same,inhibition at 10 µg/mL,"[1]; donor A/donor B, 10 μg/ml",90%
same,inhibition at 0.0001 µg/mL,"[1]; donor C/donor D, 0.0001 μg/ml",14%
same,inhibition at 0.001 µg/mL,"[1]; donor C/donor D, 0.001 μg/ml",51.7%
same,inhibition at 0.01 µg/mL,"[1]; donor C/donor D, 0.01 μg/ml",77%
same,inhibition at 0.1 µg/mL,"[1]; donor C/donor D, 0.1 μg/ml",80.3%
same,inhibition at 1 µg/mL,"[1]; donor C/donor D, 1 μg/ml",86.4%
same,inhibition at 10 pg/mL,[1],6.8%
same,IC50,[1],0.22 ng/mL
same,3H-thymidine uptake,"[1]; donor A/donor B, 0.0001 μg/ml",14191 cpm
same,3H-thymidine uptake,"[1]; donor A/donor B, 0.001 μg/ml",11753 cpm
same,3H-thymidine uptake,"[1]; donor A/donor B, 0.01 μg/ml",6335 cpm
same,3H-thymidine uptake,"[1]; donor A/donor B, 0.1 μg/ml",6418 cpm
same,3H-thymidine uptake,"[1]; donor A/donor B, 1 μg/ml",5877 cpm
same,3H-thymidine uptake,"[1]; donor A/donor B, 10 μg/ml",4564 cpm
same,3H-thymidine uptake,"[1]; donor C/donor D, 0.00001 μg/ml",16241 cpm
same,3H-thymidine uptake,"[1]; donor C/donor D, 0.0001 μg/ml",14996 cpm
same,3H-thymidine uptake,"[1]; donor C/donor D, 0.001 μg/ml",8468 cpm
same,3H-thymidine uptake,"[1]; donor C/donor D, 0.01 μg/ml",4082 cpm
same,3H-thymidine uptake,"[1]; donor C/donor D, 0.1 μg/ml",3501 cpm
same,3H-thymidine uptake,"[1]; donor C/donor D, 1 μg/ml",2448 cpm
same,Absorbancy,[2]; 0.1 μg/ml,0.463
same,Absorbancy,[2]; 1.0 μg/ml,0.457
same,Absorbancy,[2]; 10.0 μg/ml,0.475
same,Absorbancy,[3]; 0.1 μg/ml,0.619
same,Absorbancy,[3]; 1.0 μg/ml,0.589
same,Absorbancy,[3]; 10.0 μg/ml,0.627
same,Absorbancy,[4]; 0.1 μg/ml,0.771
same,Absorbancy,[4]; 1.0 μg/ml,0.728
same,Absorbancy,[4]; 10.0 μg/ml,0.707
same,Absorbancy,[5]; 0.1 μg/ml,0.372
same,Absorbancy,[5]; 1.0 μg/ml,0.405
same,Absorbancy,[5]; 10.0 μg/ml,0.351
same,Absorbancy,[6]; 0.1 μg/ml,0.439
same,Absorbancy,[6]; 1.0 μg/ml,0.436
same,Absorbancy,[6]; 10.0 μg/ml,0.435
CCCCCCC(=O)CCCCCCCCCC1OC(=O)C(N)(CO)C1O (stereo not shown) [Example 7],Absorbancy,[2]; 0.1 μg/ml,0.681
same,Absorbancy,[2]; 1.0 μg/ml,0.653
same,Absorbancy,[2]; 10.0 μg/ml,0.587
same,Absorbancy,[3]; 0.1 μg/ml,0.432
same,Absorbancy,[3]; 1.0 μg/ml,0.427
same,Absorbancy,[3]; 10.0 μg/ml,0.428
same,Absorbancy,[4]; 0.1 μg/ml,0.726
same,Absorbancy,[4]; 1.0 μg/ml,0.695
same,Absorbancy,[4]; 10.0 μg/ml,0.493
same,Absorbancy,[5]; 0.1 μg/ml,0.446
same,Absorbancy,[5]; 1.0 μg/ml,0.424
same,Absorbancy,[5]; 10.0 μg/ml,0.315
same,Absorbancy,[6]; 0.1 μg/ml,0.588
same,Absorbancy,[6]; 1.0 μg/ml,0.593
same,Absorbancy,[6]; 10.0 μg/ml,0.551
